Assay results from patent US4931447A, “Cycloalkylamides of (8β)-1-alkyl-6-(substituted) ergolines” (Eli Lilly and Company, priority 1989, dated 1990).

Columns and labels:
Assay type in all cases: in vivo, rat (male Sprague-Dawley)
[1] = tested on: Male Rats; assay: Copulatory performance of male rats, oral administration (Tables V, VI); details: for Postejaculatory Latency / Ejaculatory Latency: 90 min before test, seconds per Table III; for Copulatory Rate: number of mounts per minute
Procedure: (§1) Adult male rats of the Sprague-Dawley strain were used in these studies. The sexual behavior evaluations were conducted at 2-week intervals beginning at 6 months of age and ending at 12 months of age. During the initial screening process, the male rats of various levels of sexual performance were selected for compound testing. […] Prior to treatment with a drug solution, each male rat was required to have at least two consecutive vehicle tests with similar sexual performance. Following each compound testing, additional vehicle tests were performed.
(§2) The mating tests were performed during the dark phase of the lighting cycle using red light illumination. Each behavioral test was initiated with the introduction of a receptive female rat into the arena and was terminated either 30 minutes later or immediately following the first postejaculatory mount. The indiees of mating performance that were evaluated for the rats capable of ejaculation included mount latency (the time interval from the introduction of the female rat to the first mount); intromission latency (the time interval from the introduction of the female rat to the first intromission); ejaculatory latency (the time interval from intromission to ejaculation); postejaculatory interval (the time from ejaculation to the next mount); mount frequency (the total number of mounts with or without intromission prior to ejaculation); intromission frequency (the number of mounts with intromission prior to ejaculation); intromission efficiency (the intromission frequency divided by the mount frequency); copulatory rate (the number of mounts per minute); copulatory frequency (the number of mounts prior to ejaculation); and copulatory efficiency (the number of mounts with intromission divided by the total number of mounts).
(§3) Each male rat was given a solution containing either the vehicle alone in water or the compound of Example 1, (8β)-N-cyclohexyl-1-isopropyl-6-methylergoline-8-carboxamide, in the same vehicle. Vehicle was made of 1 mM (millimolar) acetic acid and 1 mM ascorbic acid.
(§4) The results of these studies are set forth below in Tables II-VII. In the Tables "N" is the number of animals used to generate the data, the average of which is provided. The specific description of the test performed is set forth in the heading of the Tables.
All solutions were administered by gavage 90 minutes prior to testing.
Control responses were obtained from the same rats 2 weeks earlier
following vehicle administration by gavage.

[2] = tested on: Male Rats; assay: Copulatory performance of male rats after various time periods following subcutaneous administration at 10 mcg/kg (Table VII); details: 10 mcg/kg s.c.
Procedure: as §1, §2, §3, §4
Of Example 1 at 10 mcg/kg After Various Time Periods

[3] = tested on: Male Rats; assay: Copulatory performance of male rats (Non-Maters and Non-Ejaculators), subcutaneous administration, percent responding (Table II)
Procedure: as §1, §2, §3, §4

[4] = tested on: Male Rats; assay: Copulatory performance of male rats, subcutaneous administration (Tables III, IV); details: for Postejaculatory Latency / Ejaculatory Latency: 30 min before test; for Copulatory Rate: number of mounts per minute
Procedure: as §1, §2, §3, §4
Control values were obtained from the same rats 2 weeks earlier following
All injections were made 30 minutes prior to testing

Question: Which results are given for `CC(C)n1cc2c3c(cccc31)[C@H]1C[C@@H](C(=O)NC3CCCCC3)CN(C)[C@@H]1C2` [Example 1, (8β)-N-Cyclohexyl-1-isopropyl-6-methylergoline-8-carboxamide]?
Answer: Postejaculatory Latency ([1]; 0.01 mcg/kg oral gavage, N = 17, control 358.5 ± 23.1): 370.2 ± 23.7; Ejaculatory Latency ([1]; 0.01 mcg/kg oral gavage, N = 17, control 713.6 ± 58.1, significant (*)): 689.2 ± 91.2; Copulatory Efficiency ([1]; 0.01 mcg/kg oral gavage, N = 17, control 0.43 ± 0.04): 0.46 ± 0.05; Mount Frequency ([1]; 0.01 mcg/kg oral gavage, N = 17, control 29.7 ± 2.9, significant (*)): 27.5 ± 4.4; Copulatory Rate ([1]; 0.01 mcg/kg oral gavage, N = 17, control 2.5 ± 0.2): 2.3 ± 0.2; Postejaculatory Latency ([1]; 0.1 mcg/kg oral gavage, N = 14, control 381.9 ± 13.4, significant (*)): 313.4 ± 12.0; Ejaculatory Latency ([1]; 0.1 mcg/kg oral gavage, N = 14, control 735.4 ± 51.9, significant (*)): 486.5 ± 70.8; Copulatory Efficiency ([1]; 0.1 mcg/kg oral gavage, N = 14, control 0.60 ± 0.05): 0.60 ± 0.05; Mount Frequency ([1]; 0.1 mcg/kg oral gavage, N = 14, control 19.4 ± 2.4): 18.7 ± 2.1; Copulatory Rate ([1]; 0.1 mcg/kg oral gavage, N = 14, control 1.7 ± 0.2, significant (*)): 2.5 ± 0.4; Postejaculatory Latency ([1]; 1.0 mcg/kg oral gavage, N = 8, control 384.1 ± 23.5): 322.1 ± 15.3; Ejaculatory Latency ([1]; 1.0 mcg/kg oral gavage, N = 8, control 646.3 ± 51.0): 415.9 ± 62.3; Copulatory Efficiency ([1]; 1.0 mcg/kg oral gavage, N = 8, control 0.59 ± 0.06): 0.58 ± 0.04; Mount Frequency ([1]; 1.0 mcg/kg oral gavage, N = 8, control 21.1 ± 3.9, significant (*)): 16.8 ± 1.8; Copulatory Rate ([1]; 1.0 mcg/kg oral gavage, N = 8, control 2.0 ± 0.4): 2.7 ± 0.4; Postejaculatory Latency ([1]; 10.0 mcg/kg oral gavage, N = 12, control 345.1 ± 20.3, significant (*)): 299.7 ± 15.1; Ejaculatory Latency ([1]; 10.0 mcg/kg oral gavage, N = 12, control 731.0 ± 87.0, significant (*)): 434.2 ± 37.9; Copulatory Efficiency ([1]; 10.0 mcg/kg oral gavage, N = 12, control 0.43 ± 0.03): 0.49 ± 0.04; Mount Frequency ([1]; 10.0 mcg/kg oral gavage, N = 12, control 25.9 ± 1.6): 22.9 ± 1.2; Copulatory Rate ([1]; 10.0 mcg/kg oral gavage, N = 12, control 2.2 ± 0.2, significant (*)): 3.3 ± 0.3; Postejaculatory Latency ([1]; 100.0 mcg/kg oral gavage, N = 8, control 417.9 ± 28.4): 350.6 ± 29.5; Ejaculatory Latency ([1]; 100.0 mcg/kg oral gavage, N = 8, control 804.6 ± 73.5, significant (*)): 366.1 ± 52.2; Copulatory Efficiency ([1]; 100.0 mcg/kg oral gavage, N = 8, control 0.51 ± 0.06, significant (*)): 0.69 ± 0.04; Mount Frequency ([1]; 100.0 mcg/kg oral gavage, N = 8, control 19.4 ± 1.7, significant (*)): 14.4 ± 1.3; Copulatory Rate ([1]; 100.0 mcg/kg oral gavage, N = 8, control 1.4 ± 0.1, significant (*)): 2.6 ± 0.4; Copulatory Rate ([2]; 0.5 hours, N = 11, control 1.7 ± 0.2, significant (*)): 2.6 ± 0.4 mounts/minute; Postejaculatory Interval ([2]; 0.5 hours, N = 11, control 368.3 ± 23.0): 333.9 ± 10.9 s; Ejaculatory Latency ([2]; 0.5 hours, N = 11, control 850.4 ± 99.2, significant (*)): 454.1 ± 78.4 s; Copulatory Rate ([2]; 8.0 hours, N = 11, control 2.6 ± 0.2, significant (*)): 3.9 ± 0.5 mounts/minute; Postejaculatory Interval ([2]; 8.0 hours, N = 11, control 349.5 ± 16.8, significant (*)): 320.1 ± 17.0 s; Ejaculatory Latency ([2]; 8.0 hours, N = 11, control 653.1 ± 61.7, significant (*)): 402.3 ± 59.7 s; Copulatory Rate ([2]; 24.0 hours, N = 15, control 2.0 ± 0.3, significant (*)): 2.8 ± 0.4 mounts/minute; Postejaculatory Interval ([2]; 24.0 hours, N = 15, control 422.4 ± 25.5): 391.7 ± 18.7 s; Ejaculatory Latency ([2]; 24.0 hours, N = 15, control 815.5 ± 64.6, significant (*)): 604.1 ± 68.4 s; Copulatory Rate ([2]; 48.0 hours, N = 11, control 2.4 ± 0.2, significant (*)): 2.5 ± 0.2 mounts/minute; Postejaculatory Interval ([2]; 48.0 hours, N = 11, control 364.8 ± 27.8, significant (*)): 365.4 ± 20.2 s; Ejaculatory Latency ([2]; 48.0 hours, N = 11, control 591.0 ± 33.8): 531.8 ± 60.6 s; Non-Ejaculators Percent Responding ([3]; 1 ng/kg s.c., 1/9 responding): 11.1%; Non-Maters Percent Responding ([3]; 1 ng/kg s.c., 1/16 responding): 6.3%; Non-Maters Percent Responding ([3]; 10 ng/kg s.c., 4/14 responding): 28.6%; Non-Ejaculators Percent Responding ([3]; 10 ng/kg s.c., 9/20 responding): 45.0%; Non-Ejaculators Percent Responding ([3]; 100 ng/kg s.c., 6/11 responding): 54.5%; Non-Maters Percent Responding ([3]; 100 ng/kg s.c., 8/14 responding): 57.1%; Non-Maters Percent Responding ([3]; 1000 ng/kg s.c., 7/12 responding): 58.3%; Non-Ejaculators Percent Responding ([3]; 1000 ng/kg s.c., 9/16 responding): 56.3%; Non-Maters Percent Responding ([3]; 10000 ng/kg s.c., 6/11 responding): 54.5%; Non-Ejaculators Percent Responding ([3]; 10000 ng/kg s.c., 11/18 responding): 61.1%; Postejaculatory Latency ([4]; 0.01 mcg/kg s.c., N = 14, control 366.9 ± 15.6): 366.8 ± 19.8 s; Ejaculatory Latency ([4]; 0.01 mcg/kg s.c., N = 14, control 602.6 ± 47.4): 530.4 ± 64.6 s; Copulatory Efficiency ([4]; 0.01 mcg/kg s.c., N = 14, control 0.59 ± 0.05): 0.56 ± 0.03; Mount Frequency ([4]; 0.01 mcg/kg s.c., N = 14, control 20.1 ± 2.4): 21.4 ± 2.0; Copulatory Rate ([4]; 0.01 mcg/kg s.c., N = 14, control 2.1 ± 0.2): 2.4 ± 0.3; Postejaculatory Latency ([4]; 0.10 mcg/kg s.c., N = 15, control 367.1 ± 18.7): 355.9 ± 13.2 s; Ejaculatory Latency ([4]; 0.10 mcg/kg s.c., N = 15, control 747.9 ± 61.8, significant (*)): 532.9 ± 58.0 s; Copulatory Efficiency ([4]; 0.10 mcg/kg s.c., N = 15, control 0.38 ± 0.03, significant (*)): 0.54 ± 0.04; Mount Frequency ([4]; 0.10 mcg/kg s.c., N = 15, control 25.0 ± 2.3): 22.9 ± 2.6; Copulatory Rate ([4]; 0.10 mcg/kg s.c., N = 15, control 2.0 ± 0.2, significant (*)): 2.7 ± 0.3; Postejaculatory Latency ([4]; 1.0 mcg/kg s.c., N = 11, control 371.2 ± 19.8): 357.3 ± 9.5 s; Ejaculatory Latency ([4]; 1.0 mcg/kg s.c., N = 11, control 749.5 ± 59.1, significant (*)): 584.8 ± 89.4 s; Copulatory Efficiency ([4]; 1.00 mcg/kg s.c., N = 11, control 0.53 ± 0.04, significant (*)): 0.67 ± 0.03; Mount Frequency ([4]; 1.00 mcg/kg s.c., N = 11, control 23.1 ± 2.4): 21.4 ± 1.7; Copulatory Rate ([4]; 1.00 mcg/kg s.c., N = 11, control 1.9 ± 0.2, significant (*)): 2.4 ± 0.2; Postejaculatory Latency ([4]; 10.0 mcg/kg s.c., N = 11, control 368.3 ± 23.0): 333.9 ± 10.9 s; Ejaculatory Latency ([4]; 10.0 mcg/kg s.c., N = 11, control 850.4 ± 99.2, significant (*)): 454.1 ± 78.4 s; Copulatory Efficiency ([4]; 10.0 mcg/kg s.c., N = 11, control 0.49 ± 0.05, significant (*)): 0.57 ± 0.04; Mount Frequency ([4]; 10.0 mcg/kg s.c., N = 11, control 23.2 ± 2.1): 18.5 ± 2.4; Copulatory Rate ([4]; 10.0 mcg/kg s.c., N = 11, control 1.7 ± 0.2, significant (*)): 2.6 ± 0.4; Postejaculatory Latency ([4]; 100.0 mcg/kg s.c., N = 16, control 373.3 ± 22.8): 325.6 ± 16.0 s; Ejaculatory Latency ([4]; 100.0 mcg/kg s.c., N = 16, control 731.8 ± 44.5, significant (*)): 463.6 ± 46.6 s; Copulatory Efficiency ([4]; 100.0 mcg/kg s.c., N = 16, control 0.49 ± 0.03, significant (*)): 0.59 ± 0.04; Mount Frequency ([4]; 100.0 mcg/kg s.c., N = 16, control 24.8 ± 2.3): 21.3 ± 1.4; Copulatory Rate ([4]; 100.0 mcg/kg s.c., N = 16, control 2.1 ± 0.2, significant (*)): 2.9 ± 0.3
